{"source": "PubChem BioAssay AID2060890", "about": "(Molecular Pharmacology Branch, DTP, NCI, 2025);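 note: spheroids exposed to agents for 7 days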;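 for viability, T/C: 100% = DMSO vehicle wells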", "test_system": "LG0703-F948-PDC complex spheroid viability", "test": "Anticancer human tumor LG0703-F948-PDC patient-derived lung adenocarcinoma cell line growth inhibition [RAS]", "details": "for IC50: curve of first compound; for viability, T/C: stronger effect = lower value", "in_short": "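Multi-cell-type spheroids: tumor cells plus HUVEC endothelial cells and mesenchymal stem cells. RAS-pathway inhibitors were combined with targeted agents, each dosed in half-log steps down from clinical Cmax, or from 10 microM when Cmax was unknown.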", "key": {"[1]": {"details": "second compound 0.0316 µM, first compound 0.0316 µM"}, "[2]": {"details": "second compound 0.0316 µM, first compound 0.1 µM"}, "[3]": {"details": "second compound 0.0316 µM, first compound 0.316 µM"}, "[4]": {"details": "second compound 0.0316 µM, first compound 1 µM"}, "[5]": {"details": "second compound 0.0316 µM, first compound 3.16 µM"}, "[6]": {"details": "second compound 0.0316 µM, first compound 10 µM"}, "[7]": {"details": "second compound 0.1 µM, first compound 0.0316 µM"}, "[8]": {"details": "second compound 0.1 µM, first compound 0.1 µM"}, "[9]": {"details": "second compound 0.1 µM, first compound 0.316 µM"}, "[10]": {"details": "second compound 0.1 µM, first compound 1 µM"}, "[11]": {"details": "second compound 0.1 µM, first compound 3.16 µM"}, "[12]": {"details": "second compound 0.1 µM, first compound 10 µM"}, "[13]": {"details": "second compound 0.316 µM, first compound 0.0316 µM"}, "[14]": {"details": "second compound 0.316 µM, first compound 0.1 µM"}, "[15]": {"details": "second compound 0.316 µM, first compound 0.316 µM"}, "[16]": {"details": "second compound 0.316 µM, first compound 1 µM"}, "[17]": {"details": "second compound 0.316 µM, first compound 3.16 µM"}, "[18]": {"details": "second compound 0.316 µM, first compound 10 µM"}, "[19]": {"details": "second compound 1 µM, first compound 0.0316 µM"}, "[20]": {"details": "second compound 1 µM, first compound 0.1 µM"}, "[21]": {"details": "second compound 1 µM, first compound 0.316 µM"}, "[22]": {"details": "second compound 1 µM, first compound 1 µM"}, "[23]": {"details": "second compound 1 µM, first compound 3.16 µM"}, "[24]": {"details": "second compound 1 µM, first compound 10 µM"}}, "data": [{"smiles": "CC(Nc1ccc2c(c1)OCCn1cc(N3C(=O)OCC3C(F)F)nc1-2)C(N)=O", "note": "(centres undefined) + C#Cc1c(F)ccc2cc(O)cc(-c3ncc4c(N5CC6CCC(C5)N6)nc(OCC56CCCN5CC(F)C6)nc4c3F)c12", "values": [{"measurement": "IC50", "setting": "second compound 0.0316 µM", "result": 1610, "unit": "nM"}, {"measurement": "IC50", "setting": "second compound 0.1 µM", "result": 1520, "unit": "nM"}, {"measurement": "IC50", "setting": "second compound 0.316 µM", "result": 903, "unit": "nM"}, {"measurement": "IC50", "setting": "second compound 1 µM", "result": 381, "unit": "nM"}, {"measurement": "IC50", "setting": "second compound 3.16 µM", "result": 62, "unit": "nM"}, {"measurement": "IC50", "setting": "second compound 10 µM", "result": "< 31.6", "unit": "nM"}, {"measurement": "viability, T/C", "setting": "[1]", "result": 96, "unit": "%"}, {"measurement": "viability, T/C", "setting": "[2]", "result": 88.5, "unit": "%"}, {"measurement": "viability, T/C", "setting": "[3]", "result": 76.3, "unit": "%"}, {"measurement": "viability, T/C", "setting": "[4]", "result": 56.4, "unit": "%"}, {"measurement": "viability, T/C", "setting": "[5]", "result": 39.9, "unit": "%"}, {"measurement": "viability, T/C", "setting": "[6]", "result": 21.6, "unit": "%"}, {"measurement": "viability, T/C", "setting": "[7]", "result": 80.7, "unit": "%"}, {"measurement": "viability, T/C", "setting": "[8]", "result": 81, "unit": "%"}, {"measurement": "viability, T/C", "setting": "[9]", "result": 66.5, "unit": "%"}, {"measurement": "viability, T/C", "setting": "[10]", "result": 56.3, "unit": "%"}, {"measurement": "viability, T/C", "setting": "[11]", "result": 39.7, "unit": "%"}, {"measurement": "viability, T/C", "setting": "[12]", "result": 19.5, "unit": "%"}, {"measurement": "viability, T/C", "setting": "[13]", "result": 78.1, "unit": "%"}, {"measurement": "viability, T/C", "setting": "[14]", "result": 71, "unit": "%"}, {"measurement": "viability, T/C", "setting": "[15]", "result": 59.9, "unit": "%"}, {"measurement": "viability, T/C", "setting": "[16]", "result": 50.8, "unit": "%"}, {"measurement": "viability, T/C", "setting": "[17]", "result": 32, "unit": "%"}, {"measurement": "viability, T/C", "setting": "[18]", "result": 12.5, "unit": "%"}, {"measurement": "viability, T/C", "setting": "[19]", "result": 77.7, "unit": "%"}, {"measurement": "viability, T/C", "setting": "[20]", "result": 71.2, "unit": "%"}, {"measurement": "viability, T/C", "setting": "[21]", "result": 52.7, "unit": "%"}, {"measurement": "viability, T/C", "setting": "[22]", "result": 32.2, "unit": "%"}, {"measurement": "viability, T/C", "setting": "[23]", "result": 17.6, "unit": "%"}, {"measurement": "viability, T/C", "setting": "[24]", "result": 9.15, "unit": "%"}, {"measurement": "viability, T/C", "setting": "second compound 3.16 µM, first compound 0.0316 µM", "result": 54.1, "unit": "%"}, {"measurement": "viability, T/C", "setting": "second compound 3.16 µM, first compound 0.1 µM", "result": 47.5, "unit": "%"}, {"measurement": "viability, T/C", "setting": "second compound 3.16 µM, first compound 0.316 µM", "result": 34, "unit": "%"}, {"measurement": "viability, T/C", "setting": "second compound 3.16 µM, first compound 1 µM", "result": 18.7, "unit": "%"}, {"measurement": "viability, T/C", "setting": "second compound 3.16 µM, first compound 3.16 µM", "result": 12.7, "unit": "%"}, {"measurement": "viability, T/C", "setting": "second compound 3.16 µM, first compound 10 µM", "result": 4.54, "unit": "%"}, {"measurement": "viability, T/C", "setting": "second compound 10 µM, first compound 0.0316 µM", "result": 48.1, "unit": "%"}, {"measurement": "viability, T/C", "setting": "second compound 10 µM, first compound 0.1 µM", "result": 31, "unit": "%"}, {"measurement": "viability, T/C", "setting": "second compound 10 µM, first compound 0.316 µM", "result": 15.2, "unit": "%"}, {"measurement": "viability, T/C", "setting": "second compound 10 µM, first compound 1 µM", "result": 7.38, "unit": "%"}, {"measurement": "viability, T/C", "setting": "second compound 10 µM, first compound 3.16 µM", "result": 4.96, "unit": "%"}, {"measurement": "viability, T/C", "setting": "second compound 10 µM, first compound 10 µM", "result": 2.4, "unit": "%"}]}, {"smiles": "C[C@@H](NC(=O)c1ncnc(N)c1Cl)c1ncc(C(=O)Nc2cc(C(F)(F)F)c(Cl)cn2)s1", "note": "+ C=CC(=O)N1CCN(c2nc(OCC3CCCN3C)nc3c(F)c(-c4nc(N)cc(C)c4C(F)(F)F)c(Cl)cc23)C(C)C1", "values": [{"measurement": "IC50", "setting": "second compound 0.00316 µM", "result": "> 10000", "unit": "nM"}, {"measurement": "IC50", "setting": "second compound 0.01 µM", "result": "> 10000", "unit": "nM"}, {"measurement": "IC50", "setting": "second compound 0.0316 µM", "result": "> 10000", "unit": "nM"}, {"measurement": "IC50", "setting": "second compound 0.1 µM", "result": "> 10000", "unit": "nM"}, {"measurement": "IC50", "setting": "second compound 0.316 µM", "result": "> 10000", "unit": "nM"}, {"measurement": "IC50", "setting": "second compound 1 µM", "result": "> 10000", "unit": "nM"}, {"measurement": "viability, T/C", "setting": "second compound 0.00316 µM, first compound 0.0316 µM", "result": 99.4, "unit": "%"}, {"measurement": "viability, T/C", "setting": "second compound 0.00316 µM, first compound 0.1 µM", "result": 100, "unit": "%"}, {"measurement": "viability, T/C", "setting": "second compound 0.00316 µM, first compound 0.316 µM", "result": 107, "unit": "%"}, {"measurement": "viability, T/C", "setting": "second compound 0.00316 µM, first compound 1 µM", "result": 110, "unit": "%"}, {"measurement": "viability, T/C", "setting": "second compound 0.00316 µM, first compound 3.16 µM", "result": 104, "unit": "%"}, {"measurement": "viability, T/C", "setting": "second compound 0.00316 µM, first compound 10 µM", "result": 93, "unit": "%"}, {"measurement": "viability, T/C", "setting": "second compound 0.01 µM, first compound 0.0316 µM", "result": 113, "unit": "%"}, {"measurement": "viability, T/C", "setting": "second compound 0.01 µM, first compound 0.1 µM", "result": 103, "unit": "%"}, {"measurement": "viability, T/C", "setting": "second compound 0.01 µM, first compound 0.316 µM", "result": 107, "unit": "%"}, {"measurement": "viability, T/C", "setting": "second compound 0.01 µM, first compound 1 µM", "result": 111, "unit": "%"}, {"measurement": "viability, T/C", "setting": "second compound 0.01 µM, first compound 3.16 µM", "result": 109, "unit": "%"}, {"measurement": "viability, T/C", "setting": "second compound 0.01 µM, first compound 10 µM", "result": 97.2, "unit": "%"}, {"measurement": "viability, T/C", "setting": "[1]", "result": 103, "unit": "%"}, {"measurement": "viability, T/C", "setting": "[2]", "result": 109, "unit": "%"}, {"measurement": "viability, T/C", "setting": "[3]", "result": 95.8, "unit": "%"}, {"measurement": "viability, T/C", "setting": "[4]", "result": 102, "unit": "%"}, {"measurement": "viability, T/C", "setting": "[5]", "result": 121, "unit": "%"}, {"measurement": "viability, T/C", "setting": "[6]", "result": 95.2, "unit": "%"}, {"measurement": "viability, T/C", "setting": "[7]", "result": 106, "unit": "%"}, {"measurement": "viability, T/C", "setting": "[8]", "result": 109, "unit": "%"}, {"measurement": "viability, T/C", "setting": "[9]", "result": 113, "unit": "%"}, {"measurement": "viability, T/C", "setting": "[10]", "result": 109, "unit": "%"}, {"measurement": "viability, T/C", "setting": "[11]", "result": 118, "unit": "%"}, {"measurement": "viability, T/C", "setting": "[12]", "result": 95.2, "unit": "%"}, {"measurement": "viability, T/C", "setting": "[13]", "result": 118, "unit": "%"}, {"measurement": "viability, T/C", "setting": "[14]", "result": 105, "unit": "%"}, {"measurement": "viability, T/C", "setting": "[15]", "result": 108, "unit": "%"}, {"measurement": "viability, T/C", "setting": "[16]", "result": 114, "unit": "%"}, {"measurement": "viability, T/C", "setting": "[17]", "result": 117, "unit": "%"}, {"measurement": "viability, T/C", "setting": "[18]", "result": 100, "unit": "%"}, {"measurement": "viability, T/C", "setting": "[19]", "result": 115, "unit": "%"}, {"measurement": "viability, T/C", "setting": "[20]", "result": 116, "unit": "%"}, {"measurement": "viability, T/C", "setting": "[21]", "result": 118, "unit": "%"}, {"measurement": "viability, T/C", "setting": "[22]", "result": 132, "unit": "%"}, {"measurement": "viability, T/C", "setting": "[23]", "result": 129, "unit": "%"}, {"measurement": "viability, T/C", "setting": "[24]", "result": 98.3, "unit": "%"}]}]}
